Source: patent US20100152434A1, “Protein Kinase-binding Nucleosides and Associated Methods” (priority 2007, published 2010)
Like-named read-outs stand apart in the source and are kept apart here.

What was measured:
M14 [1] = test system: M14
HOP-62 [2] = assay: cells; conditions: Homo sapiens, HOP-62
LOX IMVI [3] = test system: LOX IMVI
RPMI-8226 [4] = assay: cells; conditions: Homo sapiens, RPMI-8226
UO-31 [5] = test system: UO-31
SF-268 [6] = test system: SF-268
LOX IMVI [7] = assay: cells; conditions: Homo sapiens
SF-295 [8] = test system: SF-295
HOP-62 [9] = conditions: HOP-52
A498 [10] = test system: A498
HCT-116 = assay: cells; conditions: Homo sapiens, HCT-116
CAKI-1 [11] = assay: cells; conditions: Homo sapiens, CAKI-1
M14 [12] = assay: cells; conditions: Homo sapiens, M14
CAKI-1 [13] = test system: CAKI-1
SF-268 [14] = assay: cells; conditions: Homo sapiens, SF-268
MCF7 = assay: cells; conditions: Homo sapiens, MCF7
NCI-H460 = assay: cells; conditions: Homo sapiens, NCI-H460
RPMI-8226 [15] = test system: RPMI-8226
SF-295 [16] = assay: cells; conditions: Homo sapiens, SF-295
NCI-H322M = assay: cells; conditions: Homo sapiens
A498 [17] = assay: cells; conditions: Homo sapiens, A498
UO-31 [18] = assay: cells; conditions: Homo sapiens, UO-31
[19] = Log10 Concentration −4.0, Molar
[20] = Log10 Concentration −5.0, Molar
[21] = Log10 Concentration −6.0, Molar
[22] = Log10 Concentration −7.0, Molar
[23] = Log10 Concentration −8.0, Molar

CNC(=O)NC[C@H]1O[C@@H](n2cnc3c(NC(=O)Nc4ccccc4)ncnc32)C(O[Si](C)(C)C(C)(C)C)[C@H]1O[Si](C)(C)C(C)(C)C (some centres unmarked) [Compound 25, 2′,3′-Bis-O-(tert-butyldimethylsilyl)-5-deoxy-5′-[(N-methylcarbamoyl)amino]-N^6-(N-phenylcarbamoyl)adenosine]
TGI (M14 [1]): 1.85E−5 Molar | Percent Growth (M14 [1]; [19]): −52% | Percent Growth (M14 [1]; [20]): 19% | Percent Growth (M14 [1]; [21]): 105% | Percent Growth (M14 [1]; [22]): 107% | Percent Growth (M14 [1]; [23]): 101% | GI50 (HOP-62 [2]): 49.8 µM | IC50 (HOP-62 [2]): 49 µM | TGI (A549/ATCC): 1.20E−5 Molar | Percent Growth (A549/ATCC; [19]): −30% | Percent Growth (A549/ATCC; [20]): 4% | Percent Growth (A549/ATCC; [21]): 90% | Percent Growth (A549/ATCC; [22]): 98% | Percent Growth (A549/ATCC; [23]): 99% | TGI (SK-OV-3): >1.00E−4 Molar | Percent Growth (SK-OV-3; [19]): 5% | Percent Growth (SK-OV-3; [20]): 39% | Percent Growth (SK-OV-3; [21]): 107% | Percent Growth (SK-OV-3; [22]): 113% | Percent Growth (SK-OV-3; [23]): 106% | TGI (LOX IMVI [3]): 3.36E−6 Molar | Percent Growth (LOX IMVI [3]; [19]): −77% | Percent Growth (LOX IMVI [3]; [20]): −89% | Percent Growth (LOX IMVI [3]; [21]): 98% | Percent Growth (LOX IMVI [3]; [22]): 101% | Percent Growth (LOX IMVI [3]; [23]): 102% | TGI (KM12): 4.41E−6 Molar | Percent Growth (KM12; [19]): −74% | Percent Growth (KM12; [20]): −66% | Percent Growth (KM12; [21]): 107% | Percent Growth (KM12; [22]): 111% | Percent Growth (KM12; [23]): 104% | TGI (DU-145): 5.71E−6 Molar | Percent Growth (DU-145; [19]): −89% | Percent Growth (DU-145; [20]): −35% | Percent Growth (DU-145; [21]): 109% | Percent Growth (DU-145; [22]): 107% | Percent Growth (DU-145; [23]): 103% | GI50 (RPMI-8226 [4]): 3.27 µM | IC50 (RPMI-8226 [4]): > 100 µM | TGI (UO-31 [5]): 9.56E−6 Molar | Percent Growth (UO-31 [5]; [19]): −21% | Percent Growth (UO-31 [5]; [20]): −2% | Percent Growth (UO-31 [5]; [21]): 84% | Percent Growth (UO-31 [5]; [22]): 97% | Percent Growth (UO-31 [5]; [23]): 87% | TGI (SF-268 [6]): 1.40E−5 Molar | Percent Growth (SF-268 [6]; [19]): 45% | Percent Growth (SF-268 [6]; [20]): 8% | Percent Growth (SF-268 [6]; [21]): 102% | Percent Growth (SF-268 [6]; [22]): 106% | Percent Growth (SF-268 [6]; [23]): 104% | GI50 (LOX IMVI [7]): 1.82 µM | IC50 (LOX IMVI [7]): 62.1 µM | TGI (SF-295 [8]): 3.18E−5 Molar | Percent Growth (SF-295 [8]; [19]): −7% | Percent Growth (SF-295 [8]; [20]): 7% | Percent Growth (SF-295 [8]; [21]): 111% | Percent Growth (SF-295 [8]; [22]): 107% | Percent Growth (SF-295 [8]; [23]): 103% | TGI (HOP-62 [9]): 1.71E−5 Molar | Percent Growth (HOP-62 [9]; Log10 Concentration −4.0 Molar): −55% | Percent Growth (HOP-62 [9]; Log10 Concentration −5.0 Molar): 25% | Percent Growth (HOP-62 [9]; Log10 Concentration −6.0 Molar): 105% | Percent Growth (HOP-62 [9]; Log10 Concentration −7.0 Molar): 108% | Percent Growth (HOP-62 [9]; Log10 Concentration −8.0 Molar): 102% | TGI (A498 [10]): 4.06E−6 Molar | Percent Growth (A498 [10]; [19]): −75% | Percent Growth (A498 [10]; [20]): −39% | Percent Growth (A498 [10]; [21]): 90% | Percent Growth (A498 [10]; [22]): 97% | Percent Growth (A498 [10]; [23]): 92% | GI50 (HCT-116): 2.11 µM | IC50 (HCT-116): 8.8 µM | GI50 (CAKI-1 [11]): 2.7 µM | IC50 (CAKI-1 [11]): > 100 µM | GI50 (M14 [12]): 4.33 µM | IC50 (M14 [12]): 93.8 µM | TGI (CAKI-1 [13]): 7.93E−6 Molar | Percent Growth (CAKI-1 [13]; [19]): −33% | Percent Growth (CAKI-1 [13]; [20]): −11% | Percent Growth (CAKI-1 [13]; [21]): 96% | Percent Growth (CAKI-1 [13]; [22]): 99% | Percent Growth (CAKI-1 [13]; [23]): 100% | GI50 (SF-268 [14]): 3.58 µM | IC50 (SF-268 [14]): > 100 µM | GI50 (MCF7): 2.69 µM | IC50 (MCF7): > 100 µM | GI50 (NCI-H460): 1.72 µM | IC50 (NCI-H460): 7.11 µM | TGI (RPMI-8226 [15]): >1.00E−4 Molar | Percent Growth (RPMI-8226 [15]; [19]): 4% | Percent Growth (RPMI-8226 [15]; [20]): 5% | Percent Growth (RPMI-8226 [15]; [21]): 98% | Percent Growth (RPMI-8226 [15]; [22]): 98% | Percent Growth (RPMI-8226 [15]; [23]): 102% | GI50 (SF-295 [16]): 3.84 µM | IC50 (SF-295 [16]): > 100 µM | GI50 (NCI-H322M): 6.86 µM | IC50 (NCI-H322M): > 100 µM | GI50 (A498 [17]): 2.03 µM | IC50 (A498 [17]): 1.95 µM | GI50 (UO-31 [18]): 2.5 µM | IC50 (UO-31 [18]): > 100 µM
